Source: patent publication US8518956B2, “1-(1-(2-ethoxyethyl)-3-ethyl-7-(4-methylpyridin-2-ylamino)-1H-pyrazolo[4,3-d]pyrimidin-5-yl) piperidine-4-carboxylic acid and salts thereof” (priority 2005, dated 2013)

How the values were obtained:
[1] = tested on: urinary cGMP; test: Method 12: SHR Rat Combination Therapy, urinary cGMP mechanistic biomarker; type: in vivo; details: 0-24 hour urine collection on day 9
[2] = tested on: Chinese hamster ovary (CHO) cells; test: Method 7: Micronucleus Assay; type: cell-based; details: in vitro, with and without S9
Description: Method 7: Micronucleus Assay
An in vitro micronucleus assay can be used to determine the mutagenic potential of a test compound. This assay detects chromosome abnormalities resulting from exposure to a test compound by measuring the formation of small membrane-bound DNA fragments such as micronuclei in the cytoplasm of interphase cells.
The assay is conducted using Chinese hamster ovary (CHO) cells under different test conditions in the absence and presence of metabolic activation. Concordance in outcomes between this screening assay and in vitro cytogenetics is around 85%. Direct (−S9) testing is conducted using 24 hour or 3 hour continuous treatments, whereas testing with metabolic activation (+S9) involves a 3 hour treatment. Clastogenicity is indicated by an increase in numbers of micronucleated cells in the first interphase after exposure (in cytokinesis-blocked binucleated cells). The results are compared to the level of cytotoxicity (measured by the proportion of binucleated cells) a test compound produces. […] A test compound displaying a negative response has not fulfilled specific evaluation criteria for the assay which may include one or both of the following: 1) a reproducible concentration dependent increase in the specific assay endpoint when compared to a negative (vehicle) control and/or 2) one or more test concentrations achieving a minimum fold increase in the specific endpoint over controls. • Positive—A positive result identifies a genotoxic hazard defined by the assays specific endpoint (ex. positive in vitro micronucleus). A test compound displaying a positive response has fulfilled specific evaluation criteria for the assay which may include one or both of the following: 1) a reproducible concentration dependent increase in the specific assay endpoint when compared to a negative (vehicle) control and/or 2) one or more test concentrations achieving a minimum fold increase in the specific endpoint over controls. • Equivocal—An equivocal result is reserved for situations where the test compound has been evaluated in a valid assay test or tests (i.e. assay acceptability criteria satisfactory), but fails to display a negative or positive result as defined by established evaluation criteria. This may convey the presence of a weak positive response that requires additional repeat testing or eventual confirmatory testing case-by-case. • Inconclusive—An inconclusive result is reserved for situations where the test compound has been evaluated in an invalid assay test (i.e. assay acceptability criteria unsatisfactory for technical reasons, ex. negative or positive controls fail to respond appropriately). Repeat testing is recommended in order to establish a valid assay test result.

[3] = Method 11: Single Dose Pharmacokinetics and Oral Bioavailability in Male Sprague-Dawley Rat; type: in vivo; details: mean
Description: Repeat testing is recommended in order to establish a valid assay test result. P. Pharmacokinetic/Pharmacodynamic Study Method 11: Single Dose Pharmacokinetics and Oral Bioavailability in Male Sprague-Dawley Rat Following Intravenous and Oral Administration
An in vivo model can be used to evaluate the single dose pharmacokinetic properties and absolute oral bioavailability of a test compound. As described more specifically below, a test compound is administered to Sprague-Dawley (SD) rats either intravenously or orally in a crossover study design and the resulting pharmacokinetic properties and oral bioavailability are measured.
Male rats are administered a 2.0 mg/kg dose orally (n=2) by gavage as a suspension (0.5% methylcellulose/0.1% Tween 80 in distilled water). After a 72 hour wash-out periond, the same rats were administered 2.0 mg/kg dose bolus intravenously (n=2) as a solution (70% PEG 400/20% 0.05 M Citrate Buffer pH 3/10% Ethanol). Serial blood samples (for plasma) are collected from each rat over a 24 hour post dose for each route. […] Pharmacokinetic parameters of a test compound are determined from the plasma concentration-time data using non-compartmental methods. • LC/MS/MS: 1) Column: Hyperso; AQUASIL C-18 2.1×20 mm, 3.0 μm; 2) Mobile phase: Aqueous Water with 0.1% Formic Acid, Orgainic: Acetonitrile; Ionization: +ESI (API 4000). MRM: m/z 494.4→m/z 394.0 (Example 261 in WO2004096810), m/z 509.44→m/z 409.80 (Example 263 in WO2004096810), m/z 495.33→m/z 395.20 (Example 262 in WO2004096810). The detection limits are 0.12 ng/mL (Example 261 in WO2004096810), 1.3 ng/mL (Example 263 in WO2004096810) and 0.11 ng/mL (Example 262 in WO2004096810).
Watson (Version 6.4.0.04) is used to calculate mean test compound concentrations, corresponding standard deviations (SD), and percent coefficient of variation (% CV), and to estimate pharmacokinetic parameters (derived by noncompartmental methods) and associated statistics (mean, SD & CV %) if applicable. (Since n=2, no SD or CV calculated ?). Concentrations below the limit of quantitation (BLQ) are reported as zero (0) and are used in the evaluation of mean concentrations and the estimation of AUC. The peak plasma concentration (Cmax) and the time to reach peak concentration (tmax) are recorded directly from individual plasma concentration-time profiles. The terminal log-linear phase of the plasma concentration-time curve is identified by linear regression of data points. The terminal half-life (t1/2) is calculated as ln(2) divided by absolute value of the slope of the terminal log-linear phase. The area under the plasma concentration-time curve from time zero to time of the last quantifiable concentration (t) [AUC(0-t)] is determined using the linear trapezoidal method. The area under the plasma concentration-time curve from time zero to infinity [AUC(0-∞)] is determined as AUC(0-t) plus the extrapolated area. The extrapolated area is determined by dividing the last observed plasma concentration by the slope of the terminal log-linear phase. Systemic plasma clearance (CL) is calculated as dose/AUC(0-∞) while the volume of distribution at steady state (Vdss) is calculated as CL×MRT, where MRT (mean residence time) is defined as AUMC(0-∞)/AUC(0-∞). The absolute PO bioavailability (F) is calculated as a ratio of the dose-normalized AUC(0-∞) of individual animal after PO administration to the dose-normalized AUC(0-∞) of individual animal after IV administration given the crossover study design.

[4] = tested on: spontaneously hypertensive rats (SHR); test: Method 12: SHR Rat Combination Therapy, blood pressure by telemetry; type: in vivo; details: 1 mg/kg once daily oral

In the case of `CCOCCn1nc(CC)c2nc(N3CCC(C(=O)O)CC3)nc(Nc3cc(C)ccn3)c21` [Carboxypiperidine Compound, 1-(1-(2-ethoxyethyl)-3-ethyl-7-(4-methylpyridin-2-ylamino)-1H-pyrazolo[4,3-d]pyrimidin-5-yl)piperidine-4-carboxylic acid], the “urinary cGMP in comparison to vehicle treated group” value [1] is reported as “elevated”, the “METHOD 7: MI[…]” value [2] is reported as “equivocal” and the AUC(0-inf) ([3]; plasma, iv, 2 mg/kg) is reported as 17500 ng·h/mL. For the same compound, the Vd ([3]; plasma, iv, 2 mg/kg, read-out: Vdss) was 0.715 L/kg, the AUC(0-inf) ([3]; plasma, po, 2 mg/kg) was 9070 ± 2300 ng·h/mL and the Cmax ([3]; plasma, po, 2 mg/kg) was 1360 ± 216 ng/mL. The Tmax ([3]; plasma, po, 2 mg/kg) was 30 ± 12 min, the F ([3]; po 2 mg/kg vs iv 2 mg/kg) was 51.8 ± 13.1% and the “reduction of blood pressure from pre-dose baseline in comparison to vehicle treated group” value ([4]; day 1) was 11±1 mmHg. The “reduction of blood pressure below pre-dose baseline” value ([4]; day 7) was 9±1 mmHg.
